Earlier results in patent US11331275B2 (Humanwell PuraCap Pharmaceuticals (Wuhan) Co., Ltd, priority 2017, dated 2022).

Compound: C=C(c1ccc(C(=O)O)cc1)c1cc2c(cc1C)C(C)(C)CCC2(C)C [bexarotene, 4-[1-(5,6,7,8-tetrahydro-3,5,5,8,8-pentamethyl-2-naphthyl)ethenyl] benzoic acid]
- solubility in acetonitrile (acetonitrile): soluble
- solubility in dimethylsulfoxide (dimethylsulfoxide): soluble
- solubility in methanol (methanol): slightly soluble
- solubility in water (water): almost insoluble
